Experiment: qIT: rate of reaction with glutathione (intrinsic reactivity)
Assay type: physicochemical
Details: fragment 0.5 mM, glutathione 5 μM
Experimental: Previously we described a fluorescence‐based platform for screening cysteine‐targeting covalent fragments called quantitative irreversible tethering (qIT). ^[19] The method measures and compares the rate of reactions of individual fragments with the protein‐of‐interest (POI) and GSH (Figure 2a and b).
Figure 2 Comparison of previous and current applications of Quantitative irreversible tethering (qIT). a) Overview of rate determination. A cysteine‐containing biomolecule is treated with covalent fragments under pseudo‐first‐order conditions. Reaction progress is followed by discrete measurement of free cysteine concentration by using the fluorogenic probe CPM, and rate constants (k obs) are derived from exponential regression analysis. b) Comparison of the reactivity profile of each fragment with the POI and GSH typically classes them as unreactive, reactive but non‐selective or reactive and selective. c) Quantification of kinetic POI/GSH selectivity facilitates hit identification. d) The observed rate of reaction between the POI and hit fragment is determined at a range of ligand concentrations by using qIT. Subsequent hyperbolic regression analysis is used to derive K i and k inact to facilitate comprehensive covSAR analysis. […]

## C=CC(=O)N1CCCc2cc(C(=O)OC)ccc21 [compound 1]
  GSH: kobs/[I]: 0.02 M⁻¹ s⁻¹

Source: PMC7754465, “Multiparameter Kinetic Analysis for Covalent Fragment Optimization by Using Quantitative Irreversible Tethering (qIT)” (Chembiochem, 2020)
